We go through nine molecules from PubChem BioAssay (NCI).

Test systems include PC-3 prostate; NCI-H226 lung; U251 CNS; OVCAR-5 ovarian; IGROV1 ovarian; SF-539 CNS; OVCAR-8 ovarian; A498 renal; SN12C renal; SK-OV-3 ovarian.
Common to all, as to assay: NCI tumour cell line growth inhibition, 48 h

Molecules are shown by their SMILES.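 96-well plates; 48 h exposure; 5 concentrations. Endpoints by linear interpolation between flanking doses. Not reached: highest tested concentration assigned. GI50 marks 50% less growth. At the TGI there is no net growth.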 Where only a bound is given, the exact number is not on record here.

Regarding `C[C@]12CC[C@@H]3c4ccc(O)cc4CC[C@H]3[C@@H]1CC[C@@H]2NS(=O)(=O)c1cccc(F)c1`, the GI50 in the test on PC-3 prostate is 2960 nM; in the test on NCI-H226 lung it was 3.72 µM; in the test with U251 CNS, 3.23 µM; in the test on OVCAR-5 ovarian, 4.35 µM; in the test with IGROV1 ovarian it was 5.42 µM; in the test on SF-539 CNS, 3.91 µM. In addition, the GI50 is 3.84 µM in the test with OVCAR-8 ovarian, 2.07 µM in the test with A498 renal, 2.35 µM with SN12C renal and 6.12 µM with SK-OV-3 ovarian. The TGI in the test with PC-3 prostate was 14 µM; in the test with NCI-H226 lung, 16.7 µM; with U251 CNS, 12.1 µM; in the test with OVCAR-5 ovarian, 16.3 µM; in the test with IGROV1 ovarian it was 21.8 µM; with SF-539 CNS, 14.1 µM. For the same molecule, the TGI was 15.8 µM in the test on OVCAR-8 ovarian, 6.68 µM with A498 renal, 6.39 µM in the test with SN12C renal and 18.2 µM in the test on SK-OV-3 ovarian.

In the case of `Cc1cc(S(=O)(=O)N/N=C(\Sc2cc(Cl)c(C)cc2S(N)(=O)=O)c2ccc(Cl)cc2)c(Cl)cc1Cl`, the GI50 in the test on PC-3 prostate was 86400 nM; in the test with NCI-H226 lung, 58.3 µM; in the test on U251 CNS, 53.1 µM; in the test on OVCAR-5 ovarian, over 100 µM; in the test on IGROV1 ovarian it was 70.2 µM; with SF-539 CNS, 28.6 µM. The GI50 was over 100 µM in the test with OVCAR-8 ovarian, 57.1 µM in the test with A498 renal, 97.2 µM in the test with SN12C renal and over 100 µM in the test on SK-OV-3 ovarian. Moreover, the TGI with PC-3 prostate was over 100 µM; in the test on NCI-H226 lung, over 100 µM; in the test on U251 CNS, over 100 µM; in the test with OVCAR-5 ovarian, over 100 µM; in the test on IGROV1 ovarian it was over 100 µM; in the test on SF-539 CNS, 61.5 µM. For the same molecule, the TGI in the test on OVCAR-8 ovarian, in the test with A498 renal, in the test on SN12C renal and in the test with SK-OV-3 ovarian was over 100 µM throughout.

On to `NC(CS/C(Cl)=C/Cl)C(=O)O` (stereo not given), for which the GI50 with PC-3 prostate is 34300 nM; in the test on NCI-H226 lung, over 100 µM; in the test with U251 CNS, over 61 µM; with OVCAR-5 ovarian, over 100 µM; in the test on IGROV1 ovarian, over 100 µM; in the test on SF-539 CNS, over 100 µM. Besides, the GI50 is 24.1 µM in the test on OVCAR-8 ovarian, 8.7 µM in the test on A498 renal, 43.3 µM in the test with SN12C renal and over 100 µM in the test on SK-OV-3 ovarian. Besides, the TGI with PC-3 prostate, in the test on NCI-H226 lung, in the test with U251 CNS, with OVCAR-5 ovarian, in the test with IGROV1 ovarian and with SF-539 CNS was over 100 µM in each case. Moreover, the TGI is over 100 µM in the test on OVCAR-8 ovarian, 33.8 µM in the test with A498 renal, over 100 µM with SN12C renal and over 100 µM in the test on SK-OV-3 ovarian.

As to `C=C1C(=O)O[C@H]2/C=C(/C)C3=CC(=O)[C@@](C)(C[C@@H](OC(=O)/C(C)=C\C)C12)O3` (stereo not given in full), the TGI in the test with PC-3 prostate is 8.78 µM; in the test with NCI-H226 lung, 11.1 µM; in the test on U251 CNS, 9.48 µM; in the test on OVCAR-5 ovarian it was 6.19 µM; in the test with IGROV1 ovarian, 4.97 µM; in the test with SF-539 CNS, 8.22 µM. In addition, the TGI in the test on OVCAR-8 ovarian was 3.94 µM; with A498 renal, over 41.4 µM; in the test on SN12C renal, 3.37 µM; in the test on SK-OV-3 ovarian it was 26 µM.

Regarding `O=C(Nc1ccc(Br)cc1)c1ccc(Cl)c(Cl)c1`, the GI50 in the test with PC-3 prostate was 2470 nM; in the test with NCI-H226 lung it was 2.86 µM; in the test on U251 CNS it was 3.27 µM; in the test with OVCAR-5 ovarian, 3.9 µM; in the test with IGROV1 ovarian it was 2.85 µM; in the test on SF-539 CNS it was 4.01 µM. Further, the GI50 with OVCAR-8 ovarian is 4.2 µM; in the test on A498 renal it was 0.207 µM; with SN12C renal, 3.21 µM; in the test on SK-OV-3 ovarian, 3.17 µM. In addition, the TGI was over 30.8 µM in the test with PC-3 prostate; over 100 µM in the test with NCI-H226 lung; over 100 µM in the test with U251 CNS; over 100 µM in the test with OVCAR-5 ovarian; over 100 µM in the test with IGROV1 ovarian; over 100 µM in the test on SF-539 CNS. In addition, the TGI with OVCAR-8 ovarian is over 100 µM; with A498 renal it was 3.75 µM; in the test with SN12C renal it was over 100 µM; with SK-OV-3 ovarian it was over 100 µM.

`COc1ccc2[nH]c3c4c(ccc3c2c1)C(=O)C=CC4=O`: the TGI in the test on PC-3 prostate came out at 33.8 µM; in the test with NCI-H226 lung, 49.9 µM; in the test on U251 CNS, 36.5 µM; with OVCAR-5 ovarian, 41.5 µM; in the test on IGROV1 ovarian, 26.4 µM; with SF-539 CNS, 32.2 µM. Also, the TGI with OVCAR-8 ovarian is 12.4 µM; with A498 renal it was 48.4 µM; in the test with SN12C renal it was 24.4 µM; in the test with SK-OV-3 ovarian, over 100 µM.

Consider `Cc1c(C2=C(Br)C(=O)N(C)C2=O)c(=O)n(C)c(=O)n1C`, for which the TGI with PC-3 prostate was 49.6 µM; with NCI-H226 lung it was over 100 µM; with U251 CNS, over 100 µM; in the test on OVCAR-5 ovarian, over 100 µM; with IGROV1 ovarian, 36.5 µM; in the test on SF-539 CNS, 34.6 µM. Further, the TGI with OVCAR-8 ovarian is over 100 µM; in the test on A498 renal, 82.9 µM; with SN12C renal it was over 100 µM; in the test with SK-OV-3 ovarian, over 100 µM.

`Cc1cc(N/N=C/c2nc(-c3ccc(Br)cc3)oc2C)c2cc(Br)ccc2n1`: the GI50 in the test with PC-3 prostate was 2680 nM; with NCI-H226 lung it was 17.9 µM; with U251 CNS, 1.94 µM; in the test on OVCAR-5 ovarian, 10.7 µM; in the test on IGROV1 ovarian, 4.55 µM; in the test with SF-539 CNS, 1.76 µM. Moreover, the GI50 was 2.43 µM in the test on OVCAR-8 ovarian, 16.5 µM in the test on A498 renal, 2.1 µM in the test with SN12C renal and 16.6 µM with SK-OV-3 ovarian. Moreover, the TGI with PC-3 prostate amounted to 8.75 µM; with NCI-H226 lung it was 48.5 µM; in the test with U251 CNS, 3.75 µM; in the test on OVCAR-5 ovarian, 22.5 µM; with IGROV1 ovarian, 20.2 µM; in the test on SF-539 CNS, 3.5 µM. In addition, the TGI in the test with OVCAR-8 ovarian turned out to be 6.66 µM; in the test with A498 renal, 53.2 µM; in the test with SN12C renal, 5.36 µM; with SK-OV-3 ovarian it was 30.2 µM.

Regarding `COc1ccc(OC)c2c(/C=C/c3ccc(N(C)C)cc3)ccnc12`, the TGI is over 10 µM in the test with PC-3 prostate; over 10 µM in the test on NCI-H226 lung; over 10 µM in the test on U251 CNS; over 10 µM with OVCAR-5 ovarian; over 10 µM in the test with IGROV1 ovarian; 6.07 µM in the test with SF-539 CNS. The TGI in the test with OVCAR-8 ovarian, with A498 renal, in the test with SN12C renal and with SK-OV-3 ovarian was over 10 µM throughout.
